Measurements published in PMC8752759, “GSNOR regulates ganoderic acid content in Ganoderma lucidum under heat stress through S-nitrosylation of catalase” (Communications Biology, 2022).

Key:
Format in all cases: biochemical
CAT (catalase) [1] = biological target: T1, CAT (catalase) (Ganoderma lucidum, UniProt A0A223M0M1); assay: biotin-switch immunoblot, LC-MS/MS of sites; CAT activity by H2O2 decomposition at […] nm; conditions: covalent; S-nitrosylation at Cys401, Cys642, Cys653; room temperature, dark, 60 min; activating
T1 construct: recombinant, pColdI vector, His-tagged, E. coli BL21(DE3), Ni-NTA purified; 6 cysteine residues

CAT (catalase) [2] = biological target: T2, CAT (catalase) (Ganoderma lucidum, UniProt A0A223M0M1, C660S); assay: biotin-switch immunoblot; CAT activity by H2O2 decomposition at […] nm; conditions: covalent; S-nitrosylation; room temperature, dark, 60 min
T2 construct: recombinant, pColdI vector, His-tagged, E. coli BL21(DE3), Ni-NTA purified; 6 cysteine residues

CAT (catalase) [3] = biological target: T3, CAT (catalase) (Ganoderma lucidum, UniProt A0A223M0M1, C419S); assay: as above; conditions: covalent; S-nitrosylation; room temperature, dark, 60 min
T3 construct: recombinant, pColdI vector, His-tagged, E. coli BL21(DE3), Ni-NTA purified; 6 cysteine residues

CAT (catalase) [4] = biological target: T4, CAT (catalase) (Ganoderma lucidum, UniProt A0A223M0M1, C671S); assay: as above; conditions: covalent; S-nitrosylation; room temperature, dark, 60 min
T4 construct: recombinant, pColdI vector, His-tagged, E. coli BL21(DE3), Ni-NTA purified; 6 cysteine residues
T4 sequence (A0A223M0M1 entry or part of it C671S): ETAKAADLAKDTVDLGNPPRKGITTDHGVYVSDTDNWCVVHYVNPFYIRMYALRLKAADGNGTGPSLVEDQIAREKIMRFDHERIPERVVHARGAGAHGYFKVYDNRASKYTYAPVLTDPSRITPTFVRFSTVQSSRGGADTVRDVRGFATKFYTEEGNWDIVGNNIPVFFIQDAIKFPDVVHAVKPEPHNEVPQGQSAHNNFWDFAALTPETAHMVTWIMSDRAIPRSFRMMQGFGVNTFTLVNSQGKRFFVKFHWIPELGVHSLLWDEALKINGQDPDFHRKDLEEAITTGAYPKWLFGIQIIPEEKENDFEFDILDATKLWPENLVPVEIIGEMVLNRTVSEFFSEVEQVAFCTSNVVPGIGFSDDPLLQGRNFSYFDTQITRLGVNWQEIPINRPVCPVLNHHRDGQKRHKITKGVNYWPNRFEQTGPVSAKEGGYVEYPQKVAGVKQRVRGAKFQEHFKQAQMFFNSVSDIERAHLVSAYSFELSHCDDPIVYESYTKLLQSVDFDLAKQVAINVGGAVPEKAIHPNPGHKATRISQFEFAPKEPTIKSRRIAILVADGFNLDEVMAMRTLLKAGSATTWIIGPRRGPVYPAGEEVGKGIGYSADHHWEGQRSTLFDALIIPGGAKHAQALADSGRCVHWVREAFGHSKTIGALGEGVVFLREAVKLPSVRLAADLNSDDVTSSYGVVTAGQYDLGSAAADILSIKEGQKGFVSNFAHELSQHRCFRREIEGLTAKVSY

T2 sequence (A0A223M0M1 entry or part of it C660S): as the sequence (A0A223M0M1 entry or part of it C671S) above, with C642S, S653C counted along it
T3 sequence (A0A223M0M1 entry or part of it C419S): as the sequence (A0A223M0M1 entry or part of it C671S) above, with C401S, S653C counted along it
T1 sequence (A0A223M0M1 entry or part of it): as the sequence (A0A223M0M1 entry or part of it C671S) above, with S653C counted along it

SMILES: N[C@@H](CCC(=O)N[C@@H](CSN=O)C(=O)NCC(=O)O)C(=O)O [GSNO, S-nitrosoglutathione]
- biotin-switch immunoblot, LC-MS/MS of sites; CAT activity by H2O2 decomposition (CAT (catalase) [1]): CAT was S-nitrosylated, which was induced by GSNO
- biotin-switch immunoblot; CAT activity by H2O2 decomposition at 240 nm (CAT (catalase) [2]): The C401S, C642S, and C653S single mutants
- biotin-switch immunoblot; CAT activity by H2O2 decomposition at 240 nm (CAT (catalase) [3]): The C401S, C642S, and C653S single mutants
- biotin-switch immunoblot; CAT activity by H2O2 decomposition at 240 nm (CAT (catalase) [4]): The C401S, C642S, and C653S single mutants
